Test results as given in US5384417A, “Heptitols” (priority 1994, dated 1995).
Like-named read-outs stand apart in the source and are kept apart here.

Tests used:
Assay type in all cases: biochemical
[1] = system: α-Glucosidase; assay: inhibition of human liver α-glucosidase; conditions: 1 mM inhibitor
Method: (§1) Human liver glycosidases were assayed in the absence and presence [1 mM] of each of the potential inhibitors, using the appropriate buffered 4-methylumbelliferyl glycosides as substrates, as previously described.^17 See Table I, below.

[2] = molecular target: T1, α-Fucosidase (Homo sapiens, UniProt P04066); assay: inhibition of human liver α-fucosidase; conditions: for inhibition of α-fucosidase (in words): 1 mM; for inhibition at 1000 µM: 1 mM inhibitor, read-out: % Inhibition of Glycosidase Activity, α-Fucosidase
T1 construct: Human liver glycosidases were assayed; from tissue; host or cells: human liver
T1 sequence (P04066 32-466): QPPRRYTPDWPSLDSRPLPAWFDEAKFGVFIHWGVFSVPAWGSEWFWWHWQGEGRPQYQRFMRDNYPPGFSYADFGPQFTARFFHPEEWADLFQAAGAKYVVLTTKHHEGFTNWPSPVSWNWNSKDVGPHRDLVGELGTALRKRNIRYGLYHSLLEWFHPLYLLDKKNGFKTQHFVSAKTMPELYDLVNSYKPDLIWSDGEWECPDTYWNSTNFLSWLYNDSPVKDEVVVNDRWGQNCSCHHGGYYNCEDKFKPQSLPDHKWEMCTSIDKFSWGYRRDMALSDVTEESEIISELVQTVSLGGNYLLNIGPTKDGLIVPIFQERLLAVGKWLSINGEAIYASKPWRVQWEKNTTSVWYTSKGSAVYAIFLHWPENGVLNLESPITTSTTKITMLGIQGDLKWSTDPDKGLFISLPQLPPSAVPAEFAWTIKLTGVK
Method: as §1

[3] = molecular target: T2, Lysosomal α-Mannosidase (Homo sapiens, UniProt O00754); assay: inhibition of human liver lysosomal α-mannosidase; conditions: for inhibition at 1000 µM: 1 mM inhibitor, read-out: % Inhibition of Glycosidase Activity, α-Mannosidase Lysosomal
T2 construct: Human liver glycosidases were assayed; from tissue; host or cells: human liver
T2 sequence (O00754 50-1011): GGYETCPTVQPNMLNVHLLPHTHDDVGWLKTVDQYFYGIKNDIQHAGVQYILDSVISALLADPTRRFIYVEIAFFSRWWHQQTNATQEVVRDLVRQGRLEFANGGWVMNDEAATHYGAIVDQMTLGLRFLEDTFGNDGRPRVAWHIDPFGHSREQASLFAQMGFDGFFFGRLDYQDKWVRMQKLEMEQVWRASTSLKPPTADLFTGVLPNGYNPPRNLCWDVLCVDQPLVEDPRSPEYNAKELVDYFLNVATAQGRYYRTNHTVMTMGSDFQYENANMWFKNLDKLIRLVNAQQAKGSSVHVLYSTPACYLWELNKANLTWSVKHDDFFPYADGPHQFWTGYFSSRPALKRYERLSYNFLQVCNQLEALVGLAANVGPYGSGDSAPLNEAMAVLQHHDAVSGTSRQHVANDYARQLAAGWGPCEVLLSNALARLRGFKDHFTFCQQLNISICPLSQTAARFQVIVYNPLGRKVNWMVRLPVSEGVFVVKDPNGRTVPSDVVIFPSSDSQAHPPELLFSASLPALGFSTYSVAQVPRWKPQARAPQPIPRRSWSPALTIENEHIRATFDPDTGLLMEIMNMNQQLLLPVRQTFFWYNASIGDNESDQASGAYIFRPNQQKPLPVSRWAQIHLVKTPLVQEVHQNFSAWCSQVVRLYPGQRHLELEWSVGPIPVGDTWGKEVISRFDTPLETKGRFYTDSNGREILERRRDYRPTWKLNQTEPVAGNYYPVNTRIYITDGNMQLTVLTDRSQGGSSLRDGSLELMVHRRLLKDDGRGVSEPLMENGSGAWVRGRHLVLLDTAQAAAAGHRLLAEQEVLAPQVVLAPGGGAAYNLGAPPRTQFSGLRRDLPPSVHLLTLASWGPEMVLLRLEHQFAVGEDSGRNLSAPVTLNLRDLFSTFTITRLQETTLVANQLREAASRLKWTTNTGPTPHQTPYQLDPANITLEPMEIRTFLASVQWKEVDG
Method: as §1

[4] = molecular target: T3, α-Galactosidase (Homo sapiens, UniProt P06280); assay: inhibition of human liver α-galactosidase; conditions: read-out: % Inhibition of Glycosidase Activity, α-Galactosidase
T3 construct: Human liver glycosidases were assayed; from tissue; host or cells: human liver
T3 sequence (P06280 32-429): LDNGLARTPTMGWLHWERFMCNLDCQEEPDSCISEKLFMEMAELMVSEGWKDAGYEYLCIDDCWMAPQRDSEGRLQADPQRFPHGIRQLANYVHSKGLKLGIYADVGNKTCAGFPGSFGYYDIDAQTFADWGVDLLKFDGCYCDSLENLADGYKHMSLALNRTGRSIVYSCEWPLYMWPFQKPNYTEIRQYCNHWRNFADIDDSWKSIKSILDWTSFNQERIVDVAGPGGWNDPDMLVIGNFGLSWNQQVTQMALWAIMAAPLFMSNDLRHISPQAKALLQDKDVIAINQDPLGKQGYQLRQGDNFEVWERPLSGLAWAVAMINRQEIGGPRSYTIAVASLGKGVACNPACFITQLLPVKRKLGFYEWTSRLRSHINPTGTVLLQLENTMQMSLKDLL
Method: as §1

[5] = system: β-Glucosidase; assay: inhibition of human liver β-glucosidase; conditions: 1 mM inhibitor
Method: as §1

SMILES | % Inhibition of Glycosidase Activity, α-Glucosidase [1] [%] | inhibition of α-fucosidase (in words) [2] | inhibition at 1000 µM [2] [%] | inhibition of α-fucosidase (in words) ([2]; listed as α-(aminomethyl)-1-deoxy-mannofuranose (5)) | inhibition at 1000 µM [3] [%] | inhibition at 1000 µM ([4]; 1 mM inhibitor) [%] | % Inhibition of Glycosidase Activity, β-Glucosidase [5] [%] | inhibition at 1000 µM [4] [%] | inhibition of lysosomal α-mannosidase (in words) ([3]; compared with DIM (3))
NC[C@H]1O[C@H]([C@H](O)CO)[C@H](O)[C@@H]1O [Manhepamine (5), 1-amino-2,5-anhydro-1-deoxy-D-glycero-D-talo-heptitol] | 0 | moderate inhibition of α-fucosidase | 77 | moderate inhibitor of α-fucosidase | 2 | 0 | 14 | – | –
OC[C@H]1NC[C@@H](O)[C@@H](O)[C@@H]1O [DMJ (1), deoxymannojirimycin] | 21 | potent inhibition of α-fucosidase | – | – | 58 | – | 0 | 0 | –
OC[C@@H](O)[C@H]1NC[C@@H](O)[C@H]1O [DIM (3)] | 0 | – | – | – | 97 | 0 | 16 | – | –
OC[C@@H](O)[C@H]1N[C@H](CO)[C@@H](O)[C@H]1O [αHomoDIM (4), 2,5-dideoxy-2,5-imino-D-glycero-D-talo-heptitol] | 12 | much less potent | 27 | – | 71 | 11 | 23 | – | decreases the inhibition of the lysosomal and neutral enzymes
OC[C@H]1N[C@H](CO)[C@@H](O)C(O)[C@@H]1O (some centres unmarked) [αHomoDMJ (2)] | 4 | decrease markedly the potent inhibition of α-fucosidase | 29 | – | 49 | 0 | 0 | – | –
